Measurements reported in the NIST ThermoML archive (doi:10.1021/acs.jced.8b00591).
Numbers after ± are expanded uncertainties.

Columns and labels:
[1] = 101.3 kPa, Liquid; for viscosity: Falling or rolling sphere viscometry; for mass density: Vibrating tube method
[2] = xn = mol fraction of the nth substance listed; conditions: 101.3 kPa, Liquid, x2 = 0; for viscosity: Falling or rolling sphere viscometry; for mass density: Vibrating tube method

Structure (SMILES) | viscosity ([1]; 288.15 K) | mass density ([1]; 288.15 K) | viscosity ([1]; 293.15 K) | mass density ([1]; 293.15 K) | viscosity ([1]; 298.15 K) | mass density ([1]; 298.15 K) | viscosity ([1]; 303.15 K) | mass density ([1]; 303.15 K) | viscosity ([1]; 308.15 K) | mass density ([1]; 308.15 K) | viscosity ([1]; 313.15 K) | mass density ([1]; 313.15 K) | viscosity ([1]; 318.15 K) | mass density ([1]; 318.15 K) | viscosity ([1]; 323.15 K) | mass density ([1]; 323.15 K) | viscosity ([1]; 328.15 K) | mass density ([1]; 328.15 K) | viscosity ([2]; 288.15 K) | mass density ([2]; 288.15 K) | further results
CCOC(=O)OCC [diethyl carbonate] | 0.871 ± 0.019 mPa·s | 980.49 ± 2.4 kg/m3 | 0.812 ± 0.018 mPa·s | 974.91 ± 2.4 kg/m3 | 0.757 ± 0.017 mPa·s | 969.3 ± 2.3 kg/m3 | 0.708 ± 0.015 mPa·s | 963.66 ± 2.3 kg/m3 | 0.664 ± 0.015 mPa·s | 958 ± 2.3 kg/m3 | 0.625 ± 0.014 mPa·s | 952.32 ± 2.3 kg/m3 | 0.589 ± 0.013 mPa·s | 946.6 ± 2.3 kg/m3 | 0.556 ± 0.012 mPa·s | 940.86 ± 2.3 kg/m3 | 0.525 ± 0.011 mPa·s | 935.08 ± 2.3 kg/m3 |  |  | 
COC(=O)OC [dimethyl carbonate] + CCn1cc[n+](C)c1.O=S(=O)([N-]S(=O)(=O)C(F)(F)F)C(F)(F)F |  |  |  |  |  |  |  |  |  |  |  |  |  |  |  |  |  |  | 0.669 ± 0.015 mPa·s | 1076.39 ± 2.6 kg/m3 | viscosity ([2]; 293.15 K): 0.626 ± 0.014 mPa·s; mass density ([2]; 293.15 K): 1069.86 ± 2.6 kg/m3; viscosity ([2]; 298.15 K): 0.587 ± 0.013 mPa·s; mass density ([2]; 298.15 K): 1063.27 ± 2.6 kg/m3; viscosity ([2]; 303.15 K): 0.552 ± 0.012 mPa·s; mass density ([2]; 303.15 K): 1056.65 ± 2.5 kg/m3; viscosity ([2]; 308.15 K): 0.52 ± 0.011 mPa·s; mass density ([2]; 308.15 K): 1050 ± 2.5 kg/m3; viscosity ([2]; 313.15 K): 0.498 ± 0.011 mPa·s; mass density ([2]; 313.15 K): 1043.29 ± 2.5 kg/m3; viscosity ([2]; 318.15 K): 0.472 ± 0.01 mPa·s; mass density ([2]; 318.15 K): 1036.57 ± 2.5 kg/m3; viscosity ([2]; 323.15 K): 0.45 ± 0.01 mPa·s; mass density ([2]; 323.15 K): 1029.83 ± 2.5 kg/m3; viscosity ([2]; 328.15 K): 0.429 ± 0.009 mPa·s; mass density ([2]; 328.15 K): 1023.03 ± 2.5 kg/m3
CCOC(=O)OCC [diethyl carbonate] + CCn1cc[n+](C)c1.O=S(=O)([N-]S(=O)(=O)C(F)(F)F)C(F)(F)F |  |  |  |  |  |  |  |  |  |  |  |  |  |  |  |  |  |  | 0.871 ± 0.019 mPa·s | 980.49 ± 2.4 kg/m3 | viscosity ([2]; 293.15 K): 0.812 ± 0.018 mPa·s; mass density ([2]; 293.15 K): 974.91 ± 2.4 kg/m3; viscosity ([2]; 298.15 K): 0.757 ± 0.017 mPa·s; mass density ([2]; 298.15 K): 969.3 ± 2.3 kg/m3; viscosity ([2]; 303.15 K): 0.708 ± 0.015 mPa·s; mass density ([2]; 303.15 K): 963.66 ± 2.3 kg/m3; viscosity ([2]; 308.15 K): 0.664 ± 0.015 mPa·s; mass density ([2]; 308.15 K): 958 ± 2.3 kg/m3; viscosity ([2]; 313.15 K): 0.625 ± 0.014 mPa·s; mass density ([2]; 313.15 K): 952.32 ± 2.3 kg/m3; viscosity ([2]; 318.15 K): 0.589 ± 0.013 mPa·s; mass density ([2]; 318.15 K): 946.6 ± 2.3 kg/m3; viscosity ([2]; 323.15 K): 0.556 ± 0.012 mPa·s; mass density ([2]; 323.15 K): 940.86 ± 2.3 kg/m3; viscosity ([2]; 328.15 K): 0.525 ± 0.011 mPa·s; mass density ([2]; 328.15 K): 935.08 ± 2.3 kg/m3
CCCC[n+]1ccn(C)c1.O=S(=O)([N-]S(=O)(=O)C(F)(F)F)C(F)(F)F | 78.02 ± 2 mPa·s | 1445.66 ± 3.5 kg/m3 | 61.32 ± 1.4 mPa·s | 1440.84 ± 3.5 kg/m3 | 48.93 ± 1.1 mPa·s | 1436.01 ± 3.5 kg/m3 | 39.84 ± 0.88 mPa·s | 1431.21 ± 3.5 kg/m3 | 32.91 ± 0.73 mPa·s | 1426.43 ± 3.5 kg/m3 | 27.56 ± 0.61 mPa·s | 1421.66 ± 3.5 kg/m3 | 23.33 ± 0.51 mPa·s | 1416.91 ± 3.4 kg/m3 | 19.97 ± 0.44 mPa·s | 1412.17 ± 3.4 kg/m3 | 17.41 ± 0.38 mPa·s | 1407.45 ± 3.4 kg/m3 |  |  | 
COC(=O)OC [dimethyl carbonate] + CCCC[n+]1ccn(C)c1.O=S(=O)([N-]S(=O)(=O)C(F)(F)F)C(F)(F)F |  |  |  |  |  |  |  |  |  |  |  |  |  |  |  |  |  |  | 0.669 ± 0.015 mPa·s | 1076.39 ± 2.6 kg/m3 | viscosity ([2]; 293.15 K): 0.626 ± 0.014 mPa·s; mass density ([2]; 293.15 K): 1069.86 ± 2.6 kg/m3; viscosity ([2]; 298.15 K): 0.587 ± 0.013 mPa·s; mass density ([2]; 298.15 K): 1063.27 ± 2.6 kg/m3; viscosity ([2]; 303.15 K): 0.552 ± 0.012 mPa·s; mass density ([2]; 303.15 K): 1056.65 ± 2.5 kg/m3; viscosity ([2]; 308.15 K): 0.52 ± 0.011 mPa·s; mass density ([2]; 308.15 K): 1050 ± 2.5 kg/m3; viscosity ([2]; 313.15 K): 0.498 ± 0.011 mPa·s; mass density ([2]; 313.15 K): 1043.29 ± 2.5 kg/m3; viscosity ([2]; 318.15 K): 0.472 ± 0.01 mPa·s; mass density ([2]; 318.15 K): 1036.57 ± 2.5 kg/m3; viscosity ([2]; 323.15 K): 0.45 ± 0.01 mPa·s; mass density ([2]; 323.15 K): 1029.83 ± 2.5 kg/m3; viscosity ([2]; 328.15 K): 0.429 ± 0.009 mPa·s; mass density ([2]; 328.15 K): 1023.03 ± 2.5 kg/m3
CCn1cc[n+](C)c1.O=S(=O)([N-]S(=O)(=O)C(F)(F)F)C(F)(F)F | 49.41 ± 1.1 mPa·s | 1528.55 ± 3.7 kg/m3 | 40.36 ± 0.89 mPa·s | 1523.47 ± 3.7 kg/m3 | 33.52 ± 0.74 mPa·s | 1518.39 ± 3.7 kg/m3 | 28.35 ± 0.62 mPa·s | 1513.34 ± 3.7 kg/m3 | 24.15 ± 0.53 mPa·s | 1508.3 ± 3.7 kg/m3 | 20.76 ± 0.46 mPa·s | 1503.28 ± 3.7 kg/m3 | 17.9 ± 0.39 mPa·s | 1498.27 ± 3.6 kg/m3 | 15.93 ± 0.35 mPa·s | 1493.28 ± 3.6 kg/m3 | 14.26 ± 0.31 mPa·s | 1488.31 ± 3.6 kg/m3 |  |  | 
CCOC(=O)OCC [diethyl carbonate] + CCCC[n+]1ccn(C)c1.O=S(=O)([N-]S(=O)(=O)C(F)(F)F)C(F)(F)F |  |  |  |  |  |  |  |  |  |  |  |  |  |  |  |  |  |  | 0.871 ± 0.019 mPa·s | 980.49 ± 2.4 kg/m3 | viscosity ([2]; 293.15 K): 0.812 ± 0.018 mPa·s; mass density ([2]; 293.15 K): 974.91 ± 2.4 kg/m3; viscosity ([2]; 298.15 K): 0.757 ± 0.017 mPa·s; mass density ([2]; 298.15 K): 969.3 ± 2.3 kg/m3; viscosity ([2]; 303.15 K): 0.708 ± 0.015 mPa·s; mass density ([2]; 303.15 K): 963.66 ± 2.3 kg/m3; viscosity ([2]; 308.15 K): 0.664 ± 0.015 mPa·s; mass density ([2]; 308.15 K): 958 ± 2.3 kg/m3; viscosity ([2]; 313.15 K): 0.625 ± 0.014 mPa·s; mass density ([2]; 313.15 K): 952.32 ± 2.3 kg/m3; viscosity ([2]; 318.15 K): 0.589 ± 0.013 mPa·s; mass density ([2]; 318.15 K): 946.6 ± 2.3 kg/m3; viscosity ([2]; 323.15 K): 0.556 ± 0.012 mPa·s; mass density ([2]; 323.15 K): 940.86 ± 2.3 kg/m3; viscosity ([2]; 328.15 K): 0.525 ± 0.011 mPa·s; mass density ([2]; 328.15 K): 935.08 ± 2.3 kg/m3
COC(=O)OC [dimethyl carbonate] | 0.669 ± 0.015 mPa·s | 1076.39 ± 2.6 kg/m3 | 0.626 ± 0.014 mPa·s | 1069.86 ± 2.6 kg/m3 | 0.587 ± 0.013 mPa·s | 1063.27 ± 2.6 kg/m3 | 0.552 ± 0.012 mPa·s | 1056.65 ± 2.5 kg/m3 | 0.52 ± 0.011 mPa·s | 1050 ± 2.5 kg/m3 | 0.498 ± 0.011 mPa·s | 1043.29 ± 2.5 kg/m3 | 0.472 ± 0.01 mPa·s | 1036.57 ± 2.5 kg/m3 | 0.45 ± 0.01 mPa·s | 1029.83 ± 2.5 kg/m3 | 0.429 ± 0.009 mPa·s | 1023.03 ± 2.5 kg/m3 |  |  | 
